Source: US20260086093A1, “METHODS TO DETERMINE DRUG TARGET RESIDENCE TIME AND TO SELECT BEST DRUG-TARGET CANDIDATES” (BiognoSYS AG, priority 2022, published 2026)

How the values were obtained:
[1] = biological target: T1, phoshatase PP2A-alpha (PPP2CA) (Homo sapiens, UniProt P67775); test: Jump-dilution LiP-MS residence-time pattern, Calyculin A on PPP2CA; format: binding; settings: 0 to 60 minutes after 100-fold jump-dilution; FIG. 7
T1 construct: endogenous in cells; host or cells: native cellular proteome
Experimental: Native proteomes were incubated with the ligand of interested (Staurosporine or Calyculin A)—lower panel—or with the solvent (DMSO)—upper panel. The sample treated with DMSO serves as negative control, and it is used to confirm that the observed effect is derived from the interaction of the Ligand with its Targets. The proteomes were then diluted by a factor of 100 (jump-dilution method), and aliquots with a sample of the ligand-bound proteome were extracted at distinct time points after dilution. […] The samples incubated for the distinct times were then subjected to a limited proteolysis step using LiP-MS or DarkLiP-MS, and measured by mass spectrometry. […]
Calyculin A is a natural compound that acts as an potent and irreversible inhibitor of serine/threonine protein phosphatases. To show the application of the LiP-MS technology for the measurement of irreversible drug-residence times, the experimental workflow described in FIGS. 3, 4 and 5 was applied to the phosphatase inhibitor Calyculin A. Native cellular proteomes were treated with Calyculin A or DMSO (vehicle) in duplicates, diluted 100 fold and analyzed by LiP-MS. […]

Kynureninase (KYNU) = biological target: T2, Kynureninase (KYNU) (Homo sapiens, UniProt Q16719); test: Jump-dilution LiP-MS, Calyculin A on non-target KYNU; format: binding; settings: entire length of the experiment after 100-fold jump-dilution; FIG. 8
T2 construct: endogenous in cells; host or cells: native cellular proteome
T2 sequence (Q16719 1-465): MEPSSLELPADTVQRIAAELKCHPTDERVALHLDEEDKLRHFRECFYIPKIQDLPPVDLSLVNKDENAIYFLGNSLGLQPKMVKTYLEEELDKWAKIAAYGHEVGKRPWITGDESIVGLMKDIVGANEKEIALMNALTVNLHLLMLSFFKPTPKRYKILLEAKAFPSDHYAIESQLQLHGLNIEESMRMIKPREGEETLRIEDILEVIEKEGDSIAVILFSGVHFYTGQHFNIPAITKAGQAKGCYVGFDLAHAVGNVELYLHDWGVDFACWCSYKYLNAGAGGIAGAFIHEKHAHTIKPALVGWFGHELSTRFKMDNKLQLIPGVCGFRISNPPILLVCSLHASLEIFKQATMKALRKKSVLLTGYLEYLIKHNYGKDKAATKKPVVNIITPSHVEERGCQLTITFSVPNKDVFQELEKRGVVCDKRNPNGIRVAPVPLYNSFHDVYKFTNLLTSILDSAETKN
Experimental: (§1) Native proteomes were incubated with the ligand of interested (Staurosporine or Calyculin A)—lower panel—or with the solvent (DMSO)—upper panel. The sample treated with DMSO serves as negative control, and it is used to confirm that the observed effect is derived from the interaction of the Ligand with its Targets. The proteomes were then diluted by a factor of 100 (jump-dilution method), and aliquots with a sample of the ligand-bound proteome were extracted at distinct time points after dilution. Due to the reduction of the concentration of the Ligand in solution (as consequence to the jump-dilution), new binding events between Ligand and Target are very unlikely, and consequently it is expected that the proportion of Ligand-bound protein Target decreases over time, as the complex Ligand-Target dissociates. The samples incubated for the distinct times were then subjected to a limited proteolysis step using LiP-MS or DarkLiP-MS, and measured by mass spectrometry. In the right intensity (I) as a function of retention time (RT is given.
(§2) For both LiP-MS and DarkLiP-MS, the limited proteolysis is performed with the unspecific protease thermolysin. After incubation for a short amount of time, the reaction is stopped by addition of EDTA.
For processing of LiP-MS experiments (1), the samples are dried after stopping the reaction. […]

[2] = system: CDK1, CDK2, CDK4, CDK6, CDK7 and CDK9; settings: towards CDK1, CDK2, CDK4, CDK6, CDK7 and CDK9; cited from earlier work
[3] = biological target: T3, Dual specificity mitogen-activated protein kinase kinase 3 (MP2K3) (Homo sapiens, UniProt P46734); test: Jump-dilution LiP-MS residence time, complex MP2K3-Staurosporine; format: binding; settings: for Half-life: time to 50% decrease of relative peptide abundance, 4-parameter logistic fit, 100-fold jump dilution, native cellular proteome
T3 construct: endogenous in cells; host or cells: native cellular proteome
T3 sequence (P46734 1-347): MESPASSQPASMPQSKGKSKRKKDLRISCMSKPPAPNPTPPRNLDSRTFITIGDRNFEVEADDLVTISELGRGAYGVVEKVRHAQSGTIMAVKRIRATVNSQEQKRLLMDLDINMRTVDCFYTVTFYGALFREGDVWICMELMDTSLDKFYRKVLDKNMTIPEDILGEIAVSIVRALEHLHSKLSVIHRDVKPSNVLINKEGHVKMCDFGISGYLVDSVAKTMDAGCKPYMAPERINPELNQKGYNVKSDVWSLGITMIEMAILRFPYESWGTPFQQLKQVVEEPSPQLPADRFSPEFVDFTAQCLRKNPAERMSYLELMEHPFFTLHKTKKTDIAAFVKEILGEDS
Experimental: as §1, §2
For processing of LiP-MS experiments (1), the samples are dried after stopping the reaction. After re-solubilization with urea, the partially-fragmented proteome is reduced and alkylated, diluted with ammonium bicarbonate, and treated with LysC and Trypsin to generate a fully fragmented peptide sample. This peptide sample is acidified with TFA and cleaned with a C18 resin before analysis by mass spectrometry.
Staurosporine is a natural compound that mimics the biological molecule ATP and acts as a promiscuous kinase inhibitor. Due to the similarities to ATP, Staurosporine has short residence times towards its protein Targets. To show the application of the LiP-MS technology for the measurement of short drug-residence times, the experimental workflow described in FIGS. 3, 4 and 5 was applied to the promiscuous kinase inhibitor Staurosporine. Native cellular proteomes were treated with Staurosporine or DMSO (vehicle) in duplicates, diluted 100 fold and analyzed by LiP-MS. The results of Example 1 are illustrated in FIG. 6. The graphs of FIG. 6 show the average abundances (y-axis) of four different peptides Peptide 1-Peptide 4 of the kinase MP2K3 measured between 0 and 60 minutes after jump-dilution (x-axis). The peptides Peptide 1-Peptide 4 are described in the database PeptideAtlas with the accessions PAp01457867, Pap00639637, PAp02016489 and PAp00503812. The graphs show a difference in peptide abundance between Staurosporine and DMSO, which is larger at earlier time points after dilution (between 0 and 30 min). The difference in abundance between Staurosporine-treated samples and DMSO decreases has time progresses.
Accordingly to equation 1, the residence-time of Staurosporine towards MP2K3 can be determined based on the half-life of the complex MP2K3-Staurosporine. Since the half-life of the complex MP2K3-Staurosporine corresponds to the interval of time that led to a reduction of peptide abundance by 50%, we fit the values of peptide abundance to a 4-parameter logistic curve. Thereby we obtained the time that corresponded to a decrease of relative peptide abundance by 50% (Table 2). Since each peptide generates a slightly different value for the half-life of the complex due experimental variability, we calculated the median of the 4 values obtained based on the four graphs of FIG. 6.

T1 sequence (P67775 whole entry): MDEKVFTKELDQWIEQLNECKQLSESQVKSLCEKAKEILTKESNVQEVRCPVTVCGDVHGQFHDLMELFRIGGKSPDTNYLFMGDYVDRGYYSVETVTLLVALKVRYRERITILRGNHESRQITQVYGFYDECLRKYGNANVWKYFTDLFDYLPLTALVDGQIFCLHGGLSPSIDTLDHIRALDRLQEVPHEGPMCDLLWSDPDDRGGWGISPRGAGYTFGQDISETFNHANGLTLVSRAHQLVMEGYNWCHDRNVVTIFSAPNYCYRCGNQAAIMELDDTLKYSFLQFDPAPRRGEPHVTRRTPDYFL

## COC[C@@H]([C@H](O)[C@H](O)C(=O)NCC[C@H](C)c1nc(/C=C/C[C@@H]2O[C@]3(C[C@@H](O)[C@@H]2C)O[C@H]([C@H](C[C@H](O)[C@H](C)[C@H](O)[C@H](C)/C=C(C)/C(C)=C/C=C/C(C)=C\C#N)OC)[C@H](OP(=O)(O)O)C3(C)C)co1)N(C)C [Calyculin A]
[1]
  Structural alteration of PPP2CA (Peptide 5 abundance vs DMSO) over time after jump-dilution: did not disappear over time
Kynureninase (KYNU)
  Binding / structural alteration of KYNU (Peptide 6 intensity vs DMSO): did not bind to KYNU

## C[C@@H](O)[C@@H](C)Oc1nc(Nc2ccc(S(=N)(=O)C3CC3)cc2)ncc1C(F)(F)F (stereo partly drawn) [Roniclib]
[2]
  IC50 values: nanomolar range

## CN[C@@H]1C[C@H]2O[C@@](C)([C@@H]1OC)n1c3ccccc3c3c4c(c5c6ccccc6n2c5c31)C(=O)NC4 [Staurosporine]
[3]; 0 to 60 minutes after 100-fold jump-dilution, FIG. 6
  Structural alteration of MP2K3 (peptide abundance vs DMSO) over time after jump-dilution: structural alteration disappeared over time
[3]; Peptide 1 of MP2K3
  Half-life: 25 min
[3]; Peptide 2 of MP2K3
  Half-life: 61 min
[3]; Peptide 3 of MP2K3
  Half-life: 129 min
[3]; Peptide 4 of MP2K3
  Half-life: 29 min
[3]; median of the 4 peptide half-lives
  Median half-life: 45 min
